The record followed here is patent US20090082423A1, “SOLUBLE EPOXIDE HYDROLASE INHIBITORS” (Arete Therapeutics, Inc., priority 2007, published 2009).

Series [1] concerns soluble epoxide hydrolase (sEH). Nature of the series: Fluorescent assay for mouse and human soluble epoxide hydrolase (CMNPC substrate). The class given is biochemical. The conditions noted are these: Conc 200 nM; recombinant sEH, CMNPC 5 μM, 30° C.; mouse or human enzyme not stated. The source says:
Fluorescent Assay for Mouse and Human Soluble Epoxide Hydrolase
Recombinant mouse sEH (MsEH) and human sEH (HsEH) were produced in a baculovirus expression system as previously reported. Grant et al., J. Biol. Chem., 268:17628-17633 (1993); Beetham et al., Arch. Biochem. Biophys., 305:197-201 (1993). The expressed proteins were purified from cell lysate by affinity chromatography. Wixtrom et al., Anal. Biochem., 169:71-80 (1988). Protein concentration was quantified using the Pierce BCA assay using bovine serum albumin as the calibrating standard. The preparations were at least 97% pure as judged by SDS-PAGE and scanning densitometry. They contained no detectable esterase or glutathione transferase activity which can interfere with the assay. The assay was also evaluated with similar results in crude cell lysates or homogenate of tissues.
The IC50s for each inhibitor were according to the following procedure:
Cyano(2-methoxynaphthalen-6-yl)methyl (3-phenyloxiran-2-yl)methyl carbonate (CMNPC; Jones P. D. et. al.; Analytical Biochemistry 2005; 343: pp. 66-75)
Bis/Tris HCl 25 mM pH 7.0 containing 0.1 mg/mL of BSA (buffer A)
CMNPC at 0.25 mM in DMSO.
Mother solution of enzyme in buffer A (Mouse sEH at 6 μg/mL and Human sEH at 5 μg/mL).
Inhibitor dissolved in DMSO at the appropriate concentration.
In a black 96 well plate, fill all the wells with 150 μL of buffer A.
Add 2 μL of DMSO in well A2 and A3, and then add 2 μL of inhibitor solution in A1 and A4 through A12.
Add 150 μL of buffer A in row A, then mix several time and transfer 150 μL to row B. Repeat this operation up to row H. The 150 μL removed from row H go to the trash.
Add 20 μL of buffer A in column 1 and 2, then add 20 μL of enzyme solution to column 3 to 12.
Incubate the plate for 5 minutes in the plate reader at 30° C.
During incubation prepare the working solution of substrate by mixing 3.68 mL of buffer A (4×0.920 mL) with 266 μL (2×133 μL) of substrate solution).
At t=0, add 30 μL of working substrate solution with multi-channel pipette labeled “Briggs 303” and start the reading ([S]final: 5 μM).
Read with ex: 330 nm (20 nm) and em: 465 nm (20 nm) every 30 second for 10 minutes. The velocities are used to analyze and calculate the IC50s.

Turning to `O=C(NCC1CCOCC1)NC12CC3CC(CC(C3)C1)C2` [Compound 1, 1-adamantan-1-yl-3-((tetrahydro-2H-pyran-4-yl)methyl)urea], the melting point lay in the range of 196 to 198 °C. The “% Inh (percent inhibition)” value in series [1] is reported as 89%.
The corresponding values for `O=C(NCC1CCOCC1)Nc1ccc(C(F)(F)F)cc1` [Compound 2, 1-((tetrahydro-2H-pyran-4-yl)methyl)-3-(4-(trifluoromethyl)phenyl)urea] are 148 to 149 °C and 70%.
The corresponding values for `O=C(Nc1ccc(C(F)(F)F)cc1)NC1CCOCC1` [Compound 3, 1-(tetrahydro-2H-pyran-4-yl)-3-(4-(trifluoromethyl)phenyl)urea] are 196 to 198 °C and 91%.
In the same order, the values of `O=C(Nc1ccc(C(F)(F)F)cc1)NC1CCS(=O)(=O)CC1` [Compound 4, 1-(1,1-dioxo-tetrahydro-2H-thiopyran-4-yl)-3-(4-(trifluoromethyl)phenyl)urea] are 196 to 198 °C and 92%.
Consider `CC1(C)CC(NC(=O)Nc2ccc(C(F)(F)F)cc2)CC(C)(C)C1=O` [Compound 5, 1-(3,3,5,5-tetramethyl-4-oxocyclohexyl)-3-(4-(trifluoromethyl)phenyl)urea], for which the melting point lay in the range of 152 to 153 °C. The “% Inh (percent inhibition)” value in series [1] was found to be 98%.
The corresponding values for `CC1(C)CC(NC(=O)NC23CC4CC(CC(C4)C2)C3)CC(C)(C)C1=O` [Compound 6, 1-adamantan-1-yl-3-(3,3,5,5-tetramethyl-4-oxocyclohexyl)urea] are 234 to 238 °C and 100%.
The corresponding values for `O=C(NC1CCS(=O)(=O)CC1)NC12CC3CC(CC(C3)C1)C2` [Compound 7, 1-adamantan-1-yl-3-(1,1-dioxo-tetrahydro-2H-thiopyran-4-yl)urea] are 244 to 246 °C and 82%.
In the same order, the values of `O=C(NC1CCOCC1)NC12CC3CC(CC(C3)C1)C2` [Compound 8, 1-adamantan-1-yl-3-(tetrahydro-2H-pyran-4-yl)urea] are 239 to 242 °C and 90%.
